How the values were obtained:
[1] = tested on: E. faecium (DSM 20477, ATCC 19434); assay: Broth microdilution antibacterial assay; format: cell-based, Enterococcus faecium; details: n = 3, TSY
Procedure, shortened: (§1)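 Broth microdilution used 2–8 × 10^5 CFU/mL inocula, with compounds serially diluted 64 to 1 μg/mL and incubated 22 h at 37 °C, read at 600 nm. A. baumannii, K. pneumoniae and P. aeruginosa were grown in MHB pH 7.4; E. faecium was grown in TSY pH 7.0–7.2. MIC and EC50 were obtained by curve fitting from three independent experiments.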

[2] = target: E. coli thioredoxin reductase (TrxR) (Escherichia coli, UniProt P0A9P4); details: read-out: IC50 TrxR from E. coli; ± standard deviation, n = 3, 75 min preincubation
Method: (§2) The inhibition of purified E. coli thioredoxin reductase (TrxR) and glutathione reductase (GR) from both E. coli and baker’s yeast was determined according to a previously applied procedure.[59],[60]
(§3) The TrxR (E. coli) and GR (baker’s yeast and E. coli) inhibition assays were performed according to previously published procedures.[62],[75] The assays are partly based on the procedure developed by Lu et al.[60] and make use of the reduction of 5,5′-dithiobis(2-nitrobenzoic acid) (DTNB). Solutions of E. coli TrxR (35.4 U/mL) and E. coli thioredoxin (Trx) (156 μg/mL) (both purchased from Sigma-Aldrich) or baker’s yeast GR (0,08 U/mL, Sigma-Aldrich) or E. coli GR (4.2 U/ml, Antibodies online) and GSSG (0.28 mM, Sigma-Aldrich) in distilled water were prepared, as were fresh 2 mM stock solutions of the test compounds in DMSO. Then, solutions with several concentrations of the test compounds in DMSO were prepared, and 35 μL of each solution was diluted with 965 μL of TE buffer (Tris–HCl 50 mM, EDTA 1 mM, pH 7.5). These solutions (20 μL) or TE buffer without the test compounds (20 μL, as control) were mixed with the TrxR or GR solutions (10 μL), the Trx or GSSG solutions (10 μL), and a solution of NADPH (200 μM) in TE buffer (100 μL) in a well on a 96-well plate. As a blank solution, 200 μM NADPH in TE buffer (100 μL) mixed with a DMSO/buffer mixture (40 μL) was used (final concentrations of DMSO: 0.5% v/v). The plate was incubated for 75 min at 25 °C with moderate shaking. After incubation, 100 μL of a reaction mixture (TE buffer containing 200 μM NADPH and 5 mM DTNB) was added to each well to initiate the reaction. After thorough mixing, the formation of 5-TNB was monitored by a microplate reader at 405 nm in 35 s intervals (10 measurements). The values were corrected by subtraction of the blank solution absorption values. The increase in the concentration of 5-TNB followed a linear trend (r^2 ≥ 0.990), and the enzymatic activities were calculated as the gradients (increase in absorbance per second) thereof. […] The inhibition is presented as the mean IC50 values and standard deviations obtained in three independent experiments.

[3] = tested on: K. pneumoniae (DSM 11678, ATCC33495); assay: Broth microdilution antibacterial assay; format: cell-based, Klebsiella pneumoniae; details: n = 3, MHB
Procedure, shortened: as §1

[4] = target: T1, glutathione reductase (GR) from baker's yeast (Saccharomyces cerevisiae, UniProt P41921); assay: GR inhibition assay (DTNB reduction); format: biochemical; details: ± standard deviation, n = 3, 75 min preincubation
T1 construct: purchased Sigma-Aldrich
T1 sequence (P41921 17-483 limits assumed): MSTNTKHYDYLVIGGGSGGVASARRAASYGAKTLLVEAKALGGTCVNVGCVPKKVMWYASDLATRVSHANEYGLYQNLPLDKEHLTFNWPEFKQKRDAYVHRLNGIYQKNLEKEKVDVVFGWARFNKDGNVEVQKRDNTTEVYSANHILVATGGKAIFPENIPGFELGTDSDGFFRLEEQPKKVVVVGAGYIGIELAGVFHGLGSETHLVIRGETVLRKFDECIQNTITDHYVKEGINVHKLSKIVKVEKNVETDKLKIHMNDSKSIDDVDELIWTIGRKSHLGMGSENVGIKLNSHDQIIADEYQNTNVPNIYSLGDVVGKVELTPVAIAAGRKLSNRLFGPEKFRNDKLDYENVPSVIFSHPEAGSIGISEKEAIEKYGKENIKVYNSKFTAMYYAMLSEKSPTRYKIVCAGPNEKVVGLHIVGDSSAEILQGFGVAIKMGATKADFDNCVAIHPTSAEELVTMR
Method: as §2, §3

[5] = target: T2, glutathione reductase (GR) from E. coli (Escherichia coli, UniProt P06715); assay: GR inhibition assay (DTNB reduction); format: biochemical; details: ± standard deviation, n = 3, 75 min preincubation
T2 construct: purchased Antibodies online
T2 sequence (P06715 1-450): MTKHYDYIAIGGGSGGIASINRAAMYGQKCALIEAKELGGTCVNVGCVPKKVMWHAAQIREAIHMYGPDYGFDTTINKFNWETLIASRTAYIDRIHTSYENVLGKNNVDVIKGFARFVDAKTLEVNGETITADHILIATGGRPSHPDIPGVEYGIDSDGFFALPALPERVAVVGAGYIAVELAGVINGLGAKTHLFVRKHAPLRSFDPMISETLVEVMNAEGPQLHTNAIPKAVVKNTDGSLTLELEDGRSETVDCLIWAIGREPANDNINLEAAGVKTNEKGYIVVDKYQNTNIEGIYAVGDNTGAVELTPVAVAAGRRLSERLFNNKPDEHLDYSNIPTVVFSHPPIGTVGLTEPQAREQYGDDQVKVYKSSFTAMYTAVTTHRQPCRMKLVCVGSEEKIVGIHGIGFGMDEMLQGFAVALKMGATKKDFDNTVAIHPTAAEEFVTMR
Method: as §2, §3

[6] = tested on: E. coli (DSM1116, ATCC 9637); assay: microbe, parasite or virus in culture; format: cell-based, Escherichia coli
Procedure, shortened: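 Escherichia coli DSM1116 (ATCC 9637) was tested by broth microdilution in 96-well plates in duplicate, with compounds serially diluted from 64 to 1 μg/mL. Inocula of 2–8 × 10^5 CFU/mL were used in MHB (21 g/L Müller Hinton broth, pH 7.4), either alone or supplemented with tryptone (17 g/L) or yeast extract (3 g/L). After 22 h at 37 °C, absorbance at 600 nm was read. MIC and EC50 were obtained by curve fitting in Sigma Plot from three independent experiments, and ciprofloxacin served as the positive control.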

[7] = tested on: S. aureus MRSA (DSM 11822, ICB 25701); assay: microbe, parasite or virus in culture; format: cell-based, methicillin resistant S. aureus; details: n = 3, TSY
Procedure, shortened: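 Broth microdilution in TSY (30 g/L trypticase soy broth, 3 g/L yeast extract, pH 7.0–7.2), inoculum 2–8 × 10^5 CFU/mL, compounds serially diluted 64 to 1 μg/mL, 22 h at 37 °C. Growth read as absorbance at 600 nm; MIC and EC50 obtained by curve fitting, three independent experiments.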

[8] = tested on: P. aeruginosa PA7 (DSM 24068); assay: microbe, parasite or virus in culture; format: cell-based, Pseudomonas aeruginosa; details: n = 3, MHB
Procedure, shortened: as §1

[9] = tested on: A. baumannii (DSM 30007, ATCC 19606); assay: Broth microdilution antibacterial assay; format: cell-based, Acinetobacter baumannii; details: n = 3, MHB
Procedure, shortened: as §1

[10] = Conductometry: molar conductivity of silver complexes in DMSO; format: physicochemical; details: 1.0 mM in DMSO, calculated as monocarbene (NHC)AgX
Procedure, shortened: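 Molar conductivity of each silver complex was measured at 1.0 mM in freshly distilled DMSO (specific conductivity ≤3 × 10^–8 S cm^–1) using an Apera Instruments EC9500 conductivity meter at 25 ± 2 °C. AgNO3 served as the 1:1 electrolyte reference, and readings were taken after dissolution to distinguish neutral monocarbene from ionic biscarbene forms.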

E. coli thioredoxin reductase (TrxR), sequence (P0A9P4 whole entry): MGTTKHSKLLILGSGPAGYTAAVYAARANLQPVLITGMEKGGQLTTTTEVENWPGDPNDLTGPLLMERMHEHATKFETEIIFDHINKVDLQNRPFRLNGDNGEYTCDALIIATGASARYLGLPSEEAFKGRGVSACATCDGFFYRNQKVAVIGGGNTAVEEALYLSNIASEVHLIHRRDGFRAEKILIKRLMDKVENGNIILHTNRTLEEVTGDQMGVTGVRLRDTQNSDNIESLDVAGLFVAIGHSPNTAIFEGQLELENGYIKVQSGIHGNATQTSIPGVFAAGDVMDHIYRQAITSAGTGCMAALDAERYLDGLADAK

O=[N+]([O-])[O-].[Ag+] [AgNO3, Silver nitrate, reference compound]
MIC E. faecium ([1]; mean ± standard error, 22 h): 94.1 ± 0.0 µM | EC50 ([1]; mean ± standard error, read-out: EC50 E. faecium): 75.9 ± 5.7 µM | MIC E. faecium (value in brackets) ([1]; 22 h): 16 µg/mL | IC50 [2]: 54 ± 5 nM | MIC K. pneumoniae ([3]; mean ± standard error, 22 h): 5.9 ± 0.0 µM | EC50 ([3]; mean ± standard error, read-out: EC50 K. pneumoniae): 4.41 ± 0.5 µM | MIC K. pneumoniae (value in brackets) ([3]; 22 h): 1 µg/mL | IC50 [4]: 33 ± 3 nM | IC50 [5]: 31 ± 1 nM | MIC E. coli DSM 1116 in MHB + tryptone ([6]; Müller-Hinton Broth with tryptone (17 g/L), ± SE): 251.1 ± 62.8 µM | MIC E. coli DSM 1116 in MHB + yeast extract ([6]; Müller-Hinton Broth with yeast extract (3 g/L), ± SE): 123.6 ± 29.4 µM | MIC E. coli DSM 1116 in MHB ([6]; Müller-Hinton Broth without additive, ± SE): 5.89 ± 0.0 µM | EC50 ([6]; mean ± standard error, n = 3, MHB): 4.87 ± 0.1 µM | MIC E. coli ([6]; mean ± standard error, n = 3, MHB, 22 h): 5.9 ± 0.0 µM | MIC E. coli (value in brackets) ([6]; n = 3, MHB, 22 h): 1 µg/mL | MIC MRSA ([7]; mean ± standard error, 22 h): 188 ± 0.0 µM | EC50 ([7]; mean ± standard error, read-out: EC50 MRSA): 98.9 ± 6.4 µM | MIC MRSA (value in brackets) ([7]; 22 h): 32 µg/mL | MIC P. aeruginosa ([8]; mean ± standard error, 22 h): 5.9 ± 0.0 µM | EC50 ([8]; mean ± standard error, read-out: EC50 P. aeruginosa): 4.12 ± 0.4 µM | MIC P. aeruginosa (value in brackets) ([8]; 22 h): 1 µg/mL | MIC A. baumannii ([9]; mean ± standard error, 22 h): 5.9 ± 0.0 µM | EC50 ([9]; mean ± standard error, read-out: EC50 A. baumannii): 4.16 ± 0.4 µM | MIC A. baumannii (value in brackets) ([9]; 22 h): 1 µg/mL | Molar conductivity ΛM ([10]; 1 h after dissolution): 37.8 S cm^2 mol^–^1 | Molar conductivity ΛM ([10]; 24 h after dissolution): 38.1 S cm^2 mol^–^1

From PMC11091889, “Silver Organometallics that are Highly Potent Thioredoxin and Glutathione Reductase Inhibitors: Exploring the Correlations of Solution Chemistry with the Strong Antibacterial Effects” (ACS Infectious Diseases, 2024)
